Laboratory results published in BindingDB's records for doi:10.1016/S0960-894X(01)80879-9 (1993).
pKi: −log10 of the molar value. Where a name gives a salt, the structure may show the parent alone.

Columns and labels:
[1] = Binding affinity for dopamine receptor D2 in guinea pig striatal membrane using radiolabeled ligand [3H]spiperone
[2] = target: Sigma-1 receptor (Cavia porcellus); test: Binding affinity for sigma receptor in guinea pig brain membrane using radiolabeled ligand [3H]-(+)-SKF- 10,047 was determined

Row | Compound | pKi [1] | pKi [2]
1 | CN1CCC2(CC1)OC(C)(c1ccccc1)CC2=O (configuration not stated) [2,8-Dimethyl-2-phenyl-1-oxa-8-aza-spiro[4.5]decan-4-one; compound with (E)-but-2-enedioic acid] | 5.00 | 6.67
2 | CCN(CC)CCC1(C)OC=C(c2ccccc2)C1=O (configuration not stated) [2-(2-Diethylamino-ethyl)-2-methyl-4-phenyl-furan-3-one; hydrochloride] | 5.00 | 8.05
3 | CCN(CC)CCC1(C)OC(c2ccccc2)=CC1=O (configuration not stated) [2-(2-Diethylamino-ethyl)-2-methyl-5-phenyl-furan-3-one; hydrochloride] | < 5.00 | 7.36
4 | CN(C)CCC1(c2ccccc2)OC=C(c2ccccc2)C1=O (configuration not stated) [2-(2-Dimethylamino-ethyl)-2,4-diphenyl-furan-3-one; hydrochloride] | 5.57 | 6.65
5 | CCN(CC)CCCC1(C)OC=C(c2ccccc2)C1=O (configuration not stated) [2-(3-Diethylamino-propyl)-2-methyl-4-phenyl-furan-3-one; hydrochloride] | < 5.00 | 7.80
6 | O=C1C=C(c2ccc(F)cc2)OC12CCN(CCc1ccccc1)CC2 [2-(4-Fluoro-phenyl)-8-phenethyl-1-oxa-8-aza-spiro[4.5]dec-2-en-4-one; hydrochloride] | 5.27 | 8.22
7 | O=C1C=C(c2ccccc2)OC12CCNCC2 [2-Phenyl-1-oxa-8-aza-spiro[4.5]dec-2-en-4-one; hydrochloride] | < 5.00 | 6.34
8 | CN1CCC2(CC1)OC=C(c1ccc(F)cc1)C2=O [3-(4-Fluoro-phenyl)-8-methyl-1-oxa-8-aza-spiro[4.5]dec-2-en-4-one; hydrochloride] | 5.59 | 5.40
9 | O=C1C(c2ccc(F)cc2)=COC12CCN(CCc1ccccc1)CC2 [3-(4-Fluoro-phenyl)-8-phenethyl-1-oxa-8-aza-spiro[4.5]dec-2-en-4-one; hydrochloride] | 6.66 | 7.62
10 | COc1ccc(C2=COC3(CCN(CCc4ccccc4)CC3)C2=O)cc1 [3-(4-Methoxy-phenyl)-8-phenethyl-1-oxa-8-aza-spiro[4.5]dec-2-en-4-one; hydrochloride] | 5.68 | 7.52
11 | O=C1C(c2ccc3ccccc3c2)=COC12CCN(CCc1ccccc1)CC2 [3-Naphthalen-2-yl-8-phenethyl-1-oxa-8-aza-spiro[4.5]dec-2-en-4-one; hydrochloride] | 5.50 | 7.46
12 | O=C1C(c2ccccc2)=COC12CCNCC2 [3-Phenyl-1-oxa-8-aza-spiro[4.5]dec-2-en-4-one; hydrochloride] | 5.00 | 5.21
13 | O=C1C=C(c2ccccc2)OC12CCCN(Cc1ccccc1)C2 (configuration not stated) [7-Benzyl-2-phenyl-1-oxa-7-aza-spiro[4.5]dec-2-en-4-one; hydrochloride] | < 5.00 | 5.34
14 | O=C1C(c2ccccc2)=COC12CCN(Cc1ccccc1)C2 (configuration not stated) [7-Benzyl-3-phenyl-1-oxa-7-aza-spiro[4.4]non-2-en-4-one; hydrochloride] | 4.70 | 7.49
15 | O=C1C(c2ccccc2)=COC12CCCN(Cc1ccccc1)C2 (configuration not stated) [7-Benzyl-3-phenyl-1-oxa-7-aza-spiro[4.5]dec-2-en-4-one; hydrochloride] | < 5.00 | 6.16
16 | O=C(CCCN1CCCC2(C1)OC(c1ccccc1)=CC2=O)c1ccc(F)cc1 (configuration not stated) [7-[4-(4-Fluoro-phenyl)-4-oxo-butyl]-2-phenyl-1-oxa-7-aza-spiro[4.5]dec-2-en-4-one; hydrochloride] | 6.82 | 6.42
17 | O=C1C(c2ccccc2)=COC12CCN(Cc1cccc(Cl)c1)CC2 [8-(3-Chloro-benzyl)-3-phenyl-1-oxa-8-aza-spiro[4.5]dec-2-en-4-one; hydrochloride] | 5.68 | 6.63
18 | Cc1cc(CN2CCC3(CC2)OC=C(c2ccccc2)C3=O)on1 [8-(3-Methyl-isoxazol-5-ylmethyl)-3-phenyl-1-oxa-8-aza-spiro[4.5]dec-2-en-4-one; hydrochloride] | 4.49 | 5.12
19 | O=C1C(c2ccccc2)=COC12CCN(Cc1ccc(F)cc1)CC2 [8-(4-Fluoro-benzyl)-3-phenyl-1-oxa-8-aza-spiro[4.5]dec-2-en-4-one; hydrochloride] | 5.62 | 8.52
20 | C=CCN1CCC2(CC1)OC=C(c1ccccc1)C2=O [8-Allyl-3-phenyl-1-oxa-8-aza-spiro[4.5]dec-2-en-4-one; hydrochloride] | 5.31 | 6.79
21 | O=C1C=C(c2ccccc2)OC12CCN(Cc1ccccc1)CC2 [8-Benzyl-2-phenyl-1-oxa-8-aza-spiro[4.5]dec-2-en-4-one; hydrochloride] | < 5.00 | 9.00
22 | O=C1C(c2ccc(F)cc2)=COC12CCN(Cc1ccccc1)CC2 [8-Benzyl-3-(4-fluoro-phenyl)-1-oxa-8-aza-spiro[4.5]dec-2-en-4-one; hydrochloride] | 5.85 | –
23 | O=C1C(c2ccccc2)=COC12CCN(Cc1ccccc1)CC2 [8-Benzyl-3-phenyl-1-oxa-8-aza-spiro[4.5]dec-2-en-4-one; hydrochloride] | 5.63 | 8.40
24 | O=C1C(c2ccc(F)cc2)=COC12CCN(CC1CCCCC1)CC2 [8-Cyclohexylmethyl-3-(4-fluoro-phenyl)-1-oxa-8-aza-spiro[4.5]dec-2-en-4-one; hydrochloride] | 6.02 | 8.70
25 | O=C1C(c2ccccc2)=COC12CCN(CC1CCCCC1)CC2 [8-Cyclohexylmethyl-3-phenyl-1-oxa-8-aza-spiro[4.5]dec-2-en-4-one; hydrochloride] | 6.19 | 9.00
26 | CN1CCC2(CC1)OC(c1ccccc1)=CC2=O [8-Methyl-2-phenyl-1-oxa-8-aza-spiro[4.5]dec-2-en-4-one; hydrochloride] | 5.54 | 6.53
27 | CN1CCC2(CC1)OC=C(c1ccccc1)C2=O [8-Methyl-3-phenyl-1-oxa-8-aza-spiro[4.5]dec-2-en-4-one; hydrochloride] | < 5.00 | 6.24
28 | O=C1C=C(c2ccccc2)OC12CCN(CCc1ccccc1)CC2 [8-Phenethyl-2-phenyl-1-oxa-8-aza-spiro[4.5]dec-2-en-4-one; hydrochloride] | 5.14 | 9.00
29 | O=C(CCCN1CCC2(CC1)OC=C(c1ccccc1)C2=O)c1ccc(F)cc1 [8-[4-(4-Fluoro-phenyl)-4-oxo-butyl]-3-phenyl-1-oxa-8-aza-spiro[4.5]dec-2-en-4-one; hydrochloride] | 7.15 | 7.77
